Assay results published in patent publication US20260224584A1 (priority 2023, published 2026).
Where a name gives a salt, the structure may show the parent alone.

Tested on: Human WB (90%) CD69
Assay: Human WB (90%) CD69
Format: cell-based
Settings: read-out: Human WB (90%) CD69 IC50 (nM); human whole blood (90%), CD69 readout

Question: How did the IC50 turn out when `CC(C)N1CCN(c2ccc(-c3cc(NCCN4CCOCC4)c4nc(C5CCC5)n(C)c4c3)cc2)CC1` [Example 32, 2-cyclobutyl-6-(4-(4-isopropylpiperazin-1-yl)phenyl)-1-methyl-N-(2-morpholinoethyl)-1H-benzo[d]imidazol-4-amine, 2 TFA] was run?
Answer: 79 nM

Question: With `Cc1cc(C)nc(Nc2cc(-c3ccc(N4CCN(C(C)C)CC4)cc3)cc3c2nc(C2CC2)n3C)c1` [Example 33, 2-cyclopropyl-N-(4,6-dimethylpyridin-2-yl)-6-(4-(4-isopropylpiperazin-1-yl)phenyl)-1-methyl-1H-benzo[d]imidazol-4-amine, TFA] as the compound, how does the IC50 read?
Answer: 245 nM

Question: `Cc1cc(C)nc(Nc2cc(-c3ccc(N4CCN(C(C)C)CC4)cc3)cc3c2nc(C2CCC2)n3C)c1` [Example 34, 2-cyclobutyl-N-(4,6-dimethylpyridin-2-yl)-6-(4-(4-isopropylpiperazin-1-yl)phenyl)-1-methyl-1H-benzo[d]imidazol-4-amine, TFA] was tested. Which IC50 did it give?
Answer: 587 nM

Question: With `CC(C)N1CCN(c2ccc(-c3cc(NCCN4CCC(F)(F)CC4)c4nc(-c5ccc(S(C)(=O)=O)cc5)n(C)c4c3)cc2)CC1` [Example 35, N-(2-(4,4-difluoropiperidin-1-yl)ethyl)-6-(4-(4-isopropylpiperazin-1-yl)phenyl)-1-methyl-2-(4-(methylsulfonyl)phenyl)-1H-benzo[d]imidazol-4-amine] as the compound, how does the IC50 read?
Answer: 571 nM

Question: How did the IC50 turn out when `CC(C)N1CCN(c2ccc(-c3cc(NCc4ccc(CN5CCOCC5)cc4)c4nc(-c5ccc(S(C)(=O)=O)cc5)n(C)c4c3)cc2)CC1` [Example 36, 6-(4-(4-isopropylpiperazin-1-yl)phenyl)-1-methyl-2-(4-(methylsulfonyl)phenyl)-N-(4-(morpholinomethyl)benzyl)-1H-benzo[d]imidazol-4-amine] was run?
Answer: 221 nM

Question: For `CC(C)N1CCN(c2ccc(-c3cc(Nc4ccc(N5CCOCC5)nn4)c4nc(-c5ccc(S(C)(=O)=O)cc5)n(C)c4c3)cc2)CC1` [Example 37, 6-(4-(4-isopropylpiperazin-1-yl)phenyl)-1-methyl-2-(4-(methylsulfonyl)phenyl)-N-(6-morpholinopyridazin-3-yl)-1H-benzo[d]imidazol-4-amine, TFA], which IC50 is on record?
Answer: 167 nM

Question: With `Cc1cc(C)nc(Nc2cc(-c3ccc(N4CCN(C5CCOCC5)CC4)cc3)cc3c2nc(-c2ccc(S(C)(=O)=O)cc2)n3C)c1` [Example 38, N-(4,6-dimethylpyridin-2-yl)-1-methyl-2-(4-(methylsulfonyl)phenyl)-6-(4-(4-(tetrahydro-2H-pyran-4-yl)piperazin-1-yl)phenyl)-1H-benzo[d]imidazol-4-amine] as the compound, how does the IC50 read?
Answer: 899 nM

Question: `CC(C)N1CCN(c2ccc(-c3cc(NCCN4CCOCC4)c4ncn(C)c4c3)cc2)CC1` [Example 39, 6-(4-(4-isopropylpiperazin-1-yl)phenyl)-1-methyl-N-(2-morpholinoethyl)-1H-benzo[d]imidazol-4-amine, 2 TFA] was tested. Which IC50 did it give?
Answer: 283 nM

Question: How did the IC50 turn out when `Cc1cc(C)nc(Nc2cc(-c3ccc(N4CCN(C(C)C)CC4)cc3)cc3c2ncn3C)c1` [Example 40, N-(4,6-dimethylpyridin-2-yl)-6-(4-(4-isopropylpiperazin-1-yl)phenyl)-1-methyl-1H-benzo[d]imidazol-4-amine] was run?
Answer: 565 nM

Question: With `Cc1cc(C)nc(Nc2cc(-c3ccc(N4CCN(C(C)C)CC4)cc3)cc3c2nc(C2CCS(=O)(=O)CC2)n3C)c1` [Example 41, 4-(4-((4,6-dimethylpyridin-2-yl)amino)-6-(4-(4-isopropylpiperazin-1-yl)phenyl)-1-methyl-1H-benzo[d]imidazol-2-yl)tetrahydro-2H-thiopyran 1,1-dioxide. TFA] as the compound, how does the IC50 read?
Answer: 128 nM

Question: Which IC50 does the source give for `CC(C)N1CCN(c2ccc(-c3cc(NCCN4CCOCC4)c4nc(C5CCS(=O)(=O)CC5)n(C)c4c3)cc2)CC1` [Example 42, 4-(6-(4-(4-isopropylpiperazin-1-yl)phenyl)-1-methyl-4-((2-morpholinoethyl)amino)-1H-benzo[d]imidazol-2-yl)tetrahydro-2H-thiopyran 1,1-dioxide] here?
Answer: 925 nM

Question: `CC(C)N1CCN(c2ccc(-c3cc(NCc4ccc(CN5CCOCC5)cc4)c4nc(C5CCS(=O)(=O)CC5)n(C)c4c3)cc2)CC1` [Example 43, 4-(6-(4-(4-isopropylpiperazin-1-yl)phenyl)-1-methyl-4-((4-(morpholinomethyl)benzyl)amino)-1H-benzo[d]imidazol-2-yl)tetrahydro-2H-thiopyran 1,1-dioxide, 2 TFA] was tested. Which IC50 did it give?
Answer: 396 nM

Question: Which IC50 does the source give for `Cc1cc(C)nc(Nc2cc(-c3ccc(N4CCN(C(C)C)CC4)cc3)cc3c2nc(C2COC2)n3C)c1` [Example 44, N-(4,6-dimethylpyridin-2-yl)-6-(4-(4-isopropylpiperazin-1-yl)phenyl)-1-methyl-2-(oxetan-3-yl)-1H-benzo[d]imidazol-4-amine] here?
Answer: 282 nM

Question: With `CC(C)N1CCN(c2ccc(-c3cc(NCCN4CCOCC4)c4nc(C5COC5)n(C)c4c3)cc2)CC1` [Example 45, 6-(4-(4-isopropylpiperazin-1-yl)phenyl)-1-methyl-N-(2-morpholinoethyl)-2-(oxetan-3-yl)-1H-benzo[d]imidazol-4-amine] as the compound, how does the IC50 read?
Answer: 473 nM

Question: With `CC(C)N1CCN(c2ccc(-c3cc(NCc4ccc(CN5CCOCC5)cc4)c4nc(C5COC5)n(C)c4c3)cc2)CC1` [Example 46, 6-(4-(4-isopropylpiperazin-1-yl)phenyl)-1-methyl-N-(4-(morpholinomethyl)benzyl)-2-(oxetan-3-yl)-1H-benzo[d]imidazol-4-amine] as the compound, how does the IC50 read?
Answer: 534 nM

Question: With `CC(C)N1CCN(c2ccc(-c3cc(NCCN4CCOCC4)c4nc(C5CCOCC5)n(C)c4c3)cc2)CC1` [Example 47, 6-(4-(4-isopropylpiperazin-1-yl)phenyl)-1-methyl-N-(2-morpholinoethyl)-2-(tetrahydro-2H-pyran-4-yl)-1H-benzo[d]imidazol-4-amine, 2 TFA] as the compound, how does the IC50 read?
Answer: 181 nM

Question: For `Cc1cc(C)nc(Nc2cc(-c3ccc(N4CCN(C(C)C)CC4)cc3)cc3c2nc(C2CCOCC2)n3C)c1` [Example 48, N-(4,6-dimethylpyridin-2-yl)-6-(4-(4-isopropylpiperazin-1-yl)phenyl)-1-methyl-2-(tetrahydro-2H-pyran-4-yl)-1H-benzo[d]imidazol-4-amine, TFA], which IC50 is on record?
Answer: 109 nM

Question: For `Cc1cc(C)nc(Nc2cc(-c3ccc(N4CCN(C(C)C)CC4)cc3)cc3c2nc(-c2cnoc2)n3C)c1` [Example 49, N-(4,6-dimethylpyridin-2-yl)-6-(4-(4-isopropylpiperazin-1-yl)phenyl)-2-(isoxazol-4-yl)-1-methyl-1H-benzo[d]imidazol-4-amine, TFA], which IC50 is on record?
Answer: 1090 nM

Question: Which IC50 does the source give for `CC(C)N1CCN(c2ccc(-c3cc(NC4CCN(S(C)(=O)=O)CC4)c4nc(C5CCN(S(C)(=O)=O)CC5)n(C)c4c3)cc2)CC1` [Example 50, 6-(4-(4-isopropylpiperazin-1-yl)phenyl)-1-methyl-N,2-bis(1-(methylsulfonyl)piperidin-4-yl)-1H-benzo[d]imidazol-4-amine] here?
Answer: 1530 nM

Question: Which IC50 does the source give for `Cc1cc(C)nc(Nc2cc(-c3ccc(N4CCN(C(C)C)CC4)cc3)cc3c2nc(-c2cc[nH]c2)n3C)c1` [Example 51, N-(4,6-dimethylpyridin-2-yl)-6-(4-(4-isopropylpiperazin-1-yl)phenyl)-1-methyl-2-(1H-pyrrol-3-yl)-1H-benzo[d]imidazol-4-amine] here?
Answer: 61 nM

Question: Which IC50 does the source give for `Cc1cc(C)nc(Nc2cc(-c3ccc(N4CCN(C(C)C)CC4)cc3)cc3c2nc(-c2ccco2)n3C)c1` [Example 52, N-(4,6-dimethylpyridin-2-yl)-2-(furan-2-yl)-6-(4-(4-isopropylpiperazin-1-yl)phenyl)-1-methyl-1H-benzo[d]imidazol-4-amine, TFA] here?
Answer: 62 nM
